Laboratory results published in US20150140015A1, “METHODS AND PHARMACEUTICAL COMPOSITIONS FOR THE TREATMENT OF PANCREATIC CANCER” (INSERM (Institut National de la Sante et de la Recherche …, priority 2013, published 2015).

What was measured:
AsPC-1 cells [1] = assay: Activated caspase-3 immunostaining in AsPC-1 cells; assay type: cell-based, human; conditions: 1 μM orexin-A, 48 hr
Procedure: FIG. 4A-C. Effect of orexin-A on apoptosis in AsPC-1 cells. A, SHP-2 protein tyrosine phosphatase inhibitor, NSC-87877, blocks orexin-induced apoptosis. AsPC-1 cells were challenged with (black bars) or without (white bars) 1 μM orexin-A for 48 hr in the absence or presence of NSC-87877 (50 μM). Apoptosis was measured by determination of annexin V-PE binding, and results are expressed as the percentage of apoptotic cells; B and C: Indirect immunostaining of activated caspase-3 in AsPC-1 cells in the presence or absence of orexin-A. Paraformaldehyde-fixed AsPC-1 cells were challenged with (orexin-A) or without (basal) 1 μM orexin-A for 48 hr. Activated caspase-3 immunostaining is shown in B and scored in C. […]
(§1) After dewaxing, rehydrating tumor paraffin sections, and antigen retrieval by pretreatment with high temperature at pH 9, immunohistochemical procedures were carried out using an automated immunohistochemical stainer according to the manufacturer's guidelines (Bond-Max slide stainer, Menarini, Leica Microsystems). […] OX1R immunostaining was evaluated by two investigators (TV and AC) by calculating a score (0-300) obtained by multiplying the intensity (negative, 0; weak, 1; moderate, 2; and strong, 3) by the percentage of stained cells. The pattern of expression (cytoplasmic, membranous, and nuclear) was also recorded, and a mean score was calculated for each tumor. […]

[2] = system: parental HPAF-II cells xenografted in nude mice; assay: Tumorigenicity assay: parental HPAF-II cells xenografted in nude mice; assay type: in vivo; conditions: daily treatment with 1 mole orexin-A/kg (so in the source)
Procedure: FIG. 8A-C. Effect of daily inoculation of orexin-A on the growth of tumors developed by xenografting OX1R expressing recombinant HPAF-II cells in nude mice. Parental HPAF-II (A) or recombinant OX1R/HPAF-II/cells (B) were inoculated in the flank of nude mice at day 0. Mice were injected daily intraperitoneally with 100 μl of 1 μmoles of orexin-A/Kg solutions starting at day 0 for both cell lines (◯) or day 28 for OX1R/HPAF-II cells (▴) or with 100 μl of PBS ([…]) for controls. The development of tumors was followed by caliper measurement; C. Formalin-fixed xenografted HPAF-II or OX1R/HPAF-II tumors from nude mice intraperitoneally injected daily or not with 1 μmoles/Kg orexin-A were analyzed by cleaved caspase-3 immunostaining. Cleaved caspase-3 positive cells were counted in 10 different fields, each comprising 500 tumoral cells, in the presence (black bars) or absence (white bars) of 50 days orexin-A treatment. Data are the means±SE of 6 tumors in each group; *** p<0.01 versus control.
Control mice received PBS.

AsPC-1 cells [3] = assay: Cell growth of AsPC-1 cells (cell counting); assay type: cell-based, human; conditions: Example 1; Orexin-A treatment of the OX1R-expressing AsPC-1 cell line
Procedure: FIG. 9. Effect of Orexin-B anti-OX1R antibodies on cell growth of AsPC-1 cells. Cells were incubated with 0.1 μM of OxB or antibodies for 48 h in culture medium and then cells were counted in order to estimate the cellular growth.
The aims of this study were: 1/ to investigate the presence of OX1R in human PAC cell lines and to analyze orexin-A effects in relation to apoptosis; 2/ to develop an in vivo heterotopic xenograft model from the cell lines expressing OX1R, for the study of tumor growth in response to Orexin-A. The expression of OX1R was studied at mRNA (RT-PCR), proteins (immunocytochemistry) and functional levels in 3 PAC cell lines (AsPC-1, HPAF-II and SW1990). The development of an animal model (heterotopic xenograft) from the cell line expressing OX1R, has allowed studying the effect of Orexin-A in tumor growth. Resected tumors were analyzed by immunohistochemistry. Only AsPC-1 cell line expresses OX1R.
The development of antibodies directed against OX1R were produced by a phage display strategy and the antibody selection was performed by using HEK and HEK stably expressing OX1R (HEK-OX1R) cell lines. […] Cells were incubated with 0.1 μM of OxB or antibodies for 48 h in culture medium and then cells were counted in order to estimate the cellular growth. […]

[4] = system: recombinant OX1R/HPAF-II cells; assay: Activated caspase-3 immunostaining in recombinant OX1R/HPAF-II cells; assay type: cell-based, human; conditions: 1 μM orexin-A, 48 hr
Procedure: FIGS. 5A and B. Effect of orexin-A on apoptosis in OX1R expressing recombinant OX1R/HPAF-II cells. A, Parental HPAF-II and recombinant OX1R/HPAF-II cells were challenged with (black bars) or without (white bars) 1 μM orexin-A for 48 hr in the absence or presence of the SHP-2 protein tyrosine phosphatase inhibitor, NSC-87877 (50 μM). Apoptosis was measured by determination of annexin V-PE binding. Results are expressed as the percentage of apoptotic cells, and are the means±SE of three separate experiments. ***p<0.001; ns, non-significant; B, paraformaldehyde-fixed HPAF-II cells and recombinant OX1R/HPAF-II cells were challenged with or without (Basal) 1 μM orexin-A for 48 hr. […]
as §1

## orexin-A: 33 amino acid hypothalamic neuropeptide, OX1R agonist, SEQ ID NO:2; peptide from GL Biochemicals
AsPC-1 cells [1]
  cleavage and activation of caspase 3: induced the cleavage and activation of caspase 3
[2]
  tumor growth inhibition: unable to promote tumor growth inhibition
AsPC-1 cells [3]
  cell growth inhibition: 32%
[4]
  caspase-3 activation: strong caspase-3 activation
